Data published in patent US8518876B2, “Composition for long-acting peptide analogs” (Pharmaln Corporation, priority 2007, dated 2013).
Where a SMILES comes first, the peptide text is derived from it. Bridges are numbered along the chain shown (N, C = ends). The star is where a group is joined. Lauroyl = CCCCCCCCCCCC(=O)*

Assay: Binding of C12TerA to hydrophobic polymeric carrier (Scatchard plot, bound/free by HPLC)
Conditions: carrier 2.5 mg/tube, PBS, incubated overnight; estimated, plot not completely linear
From the text: FIG. 17: This figure is a Scatchard plot showing the binding of C12TerA to polymeric carrier containing a hydrophobic group disclosed in U.S. patent application Ser. No. 11/613,183, which is hereby incorporated by reference. The carrier also referred to as PGC-HC18 or 20PLPEG555-C18 is made up of polylysine of 15-30 kDa where 55% of the amino group is covalently modified to contain 5 kDa methoxypolyethylene glycol attached by through succinate linker and the remaining 45% of the amino group is amide bonded to stearic acid carboxyl group all disclosed in U.S. patent application Ser. No. 11/613,183. […] The filtrate containing […] C12TerA was quantified by HPLC. […] It should be noted that some C12TerA can form micelle and may be counted as bound due to the analytical techniques used.
FIG. 17 is a Scatchard plot showing the binding of C12TerA to polymeric carrier containing a hydrophobic group disclosed in U.S. patent application Ser. No. 11/613,183, which is hereby incorporated by reference. […] The filtrate containing […] C12TerA was quantified by HPLC. […] It should be noted that some C12TerA can form micelle and may be counted as bound due to the analytical techniques used.
The amount of C12TerA capable of being bound to a carrier was determined by varying the amount of the analog in the presence of 10 mg/ml hydrophobic group containing carrier PGC-HC18 or 20PLPEG555-C18. […]

CCCCCCCCCCCC(=O)NCC(=O)NCC(=O)NCC(=O)N[C@H]1CSSC[C@@H](C(=O)N2CCC[C@H]2C(=O)N[C@@H](CCCCN)C(=O)NCC(N)=O)NC(=O)[C@H](CC(N)=O)NC(=O)[C@H](CCC(N)=O)NC(=O)[C@H](Cc2ccccc2)NC(=O)[C@H](Cc2ccc(O)cc2)NC1=O [C12TerA, CH3(CH2)10CO-Gly-Gly-Gly-Cys-Tyr-Phe-Gln-Asn-Cys-Pro-Lys-Gly-NH2] (Lauroyl-GGGCYFQNCPKG-NH2; disulfide 4-9)
Kd: 1000 to 5000 nM
